Measured values as given in patent US20230089867A1, “CYCLIC PENTAMER COMPOUNDS AS PROPROTEIN CONVERTASE SUBTILISIN/KEXIN TYPE 9 (PCSK9) INHIBITORS FOR THE TREATMENT OF METABOLIC DISORDER” (Novartis AG, priority 2018, published 2023).

Target: human PCSK9 (Homo sapiens, UniProt Q8NBP7)
Assay: PCSK9 ligand binding TR-FRET assay (interference with binding of human PCSK9 to human LDLR)
Conditions: for Max % inhibition: PCSK9 FRET assay, efficacy (Amax), 100% = 1 uM unlabeled human PCSK9, 0% = DMSO; for IC50: TR-FRET, human PCSK9 Alexa Fluor 647 / human LDLR extracellular domain-Europium Kryptate, read-out: PCSK9 FRET Assay IC50
Summary of the method: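 Threefold compound dilutions were pre-incubated 30 min with PCSK9, after which 4 nM Europium Kryptate-tagged human LDLR ectodomain was added for a further 2 h.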

Sequence of human PCSK9 (Q8NBP7 153-692): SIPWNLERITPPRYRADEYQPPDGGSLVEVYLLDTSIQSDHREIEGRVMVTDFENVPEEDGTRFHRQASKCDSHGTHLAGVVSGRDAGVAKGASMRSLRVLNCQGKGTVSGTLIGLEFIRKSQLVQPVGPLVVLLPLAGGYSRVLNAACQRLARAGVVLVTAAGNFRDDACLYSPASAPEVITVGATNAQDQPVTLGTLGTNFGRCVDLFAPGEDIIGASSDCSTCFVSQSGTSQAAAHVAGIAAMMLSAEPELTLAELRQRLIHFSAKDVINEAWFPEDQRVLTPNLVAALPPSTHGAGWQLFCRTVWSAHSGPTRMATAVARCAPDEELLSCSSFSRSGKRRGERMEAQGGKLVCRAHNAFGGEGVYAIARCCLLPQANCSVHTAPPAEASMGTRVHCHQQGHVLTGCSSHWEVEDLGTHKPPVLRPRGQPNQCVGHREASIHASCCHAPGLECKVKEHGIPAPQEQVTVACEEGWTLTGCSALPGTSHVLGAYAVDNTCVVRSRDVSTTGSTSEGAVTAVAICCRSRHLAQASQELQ
Sequence of human PCSK9 (Q8NBP7 31-152 partner limits assumed): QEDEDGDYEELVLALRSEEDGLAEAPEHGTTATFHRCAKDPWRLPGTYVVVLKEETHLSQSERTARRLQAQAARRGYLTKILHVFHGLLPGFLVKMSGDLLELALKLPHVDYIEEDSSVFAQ

| SMILES | Max % inhibition | IC50 |
| --- | --- | --- |
| Cc1c(CN(C)C)ncn1-c1ccc(Oc2cc(Cl)ccc2CN2C(=O)C[C@@H](Cc3ccccc3)C(=O)N(C)[C@H]3CCCC[C@@H]3NC(=O)C[C@H](Cc3ccc(Cl)cc3)N(C)C(=O)[C@H](CO)NC(=O)[C@@H]2C)cc1 [Compound 278, (4S,7S,10S,14R,16aS,20aS)-14-benzyl-11-(4-chloro-2-(4-(4-((dimethylamino)methyl)-5-methyl-1H-imidazol-1-yl)phenoxy)benzyl)-4-(4-chlorobenzyl)-7-(hydroxymethyl)-5,10,16-trimethylhexadecahydrobenzo[l][1,4,7,11,14]pentaazacyclooctadecine-2,6,9,12,15(3H)-pentaone] | 107.17% | 1.3 nM |
| COC[C@@H]1NC(=O)[C@H](C)N(Cc2ccc(Cl)cc2Oc2ccc(-c3cnc(CN(C)C)n3C)cc2)C(=O)C[C@@H](Cc2cccnc2)C(=O)N(C)[C@H]2CCCC[C@@H]2NC(=O)C[C@H](Cc2ccc(Cl)cc2)N(C)C1=O [Compound 280, (4S,7S,10S,14R,16aS,20aS)-11-(4-chloro-2-(4-(2-((dimethylamino)methyl)-1-methyl-1H-imidazol-5-yl)phenoxy)benzyl)-4-(4-chlorobenzyl)-7-(methoxymethyl)-5,10,16-trimethyl-14-(pyridin-3-ylmethyl)hexadecahydrobenzo[l][1,4,7,11,14]pentaazacyclooctadecine-2,6,9,12,15(3H)-pentaone] | 100.09% | 0.6 nM |
| COC[C@@H]1NC(=O)[C@H](C)N(Cc2ccc(Cl)cc2Oc2ccc(-c3cnc(CN4CCCC4)n3C)c(C)c2)C(=O)C[C@@H](Cc2ccccc2)C(=O)N(C)[C@@H](C)CNC(=O)C[C@H](Cc2ccc(Cl)cc2)N(C)C1=O [Compound 281, (2S,5S,8S,13S,16R)-16-benzyl-1-(4-chloro-2-(3-methyl-4-(1-methyl-2-(pyrrolidin-1-ylmethyl)-1H-imidazol-5-yl)phenoxy)benzyl)-8-(4-chlorobenzyl)-5-(methoxymethyl)-2,7,13,14-tetramethyl-1,4,7,11,14-pentaazacyclooctadecane-3,6,10,15,18-pentaone] | 89.62% | 1 nM |
| C=Cc1ncc(-c2ccc(Oc3cc(Cl)ccc3CN3C(=O)C[C@@H](Cc4ccccc4)C(=O)N(C)[C@@H](C)CNC(=O)C[C@H](Cc4ccc(Cl)cc4)N(C)C(=O)[C@H](COC)NC(=O)[C@@H]3C)cc2)n1C [Compound 282, (2S,5S,8S,13S,16R)-16-benzyl-1-(4-chloro-2-(4-(1-methyl-2-vinyl-1H-imidazol-5-yl)phenoxy)benzyl)-8-(4-chlorobenzyl)-5-(methoxymethyl)-2,7,13,14-tetramethyl-1,4,7,11,14-pentaazacyclooctadecane-3,6,10,15,18-pentaone] | 60.78% | 6.1 nM |
| COC[C@@H]1NC(=O)[C@H](CCCN2CCOCC2)N(Cc2ccc(Cl)cc2Oc2ccc(-c3cnc(CN(C)C)n3C)cc2)C(=O)C[C@@H](Cc2ccccc2)C(=O)N(C)[C@@H](C)[C@H](C)NC(=O)C[C@H](Cc2ccc(Cl)cc2)N(C)C1=O [Compound 283, (2S,5S,8S,12S,13S,16R)-16-benzyl-1-(4-chloro-2-(4-(2-((dimethylamino)methyl)-1-methyl-1H-imidazol-5-yl)phenoxy)benzyl)-8-(4-chlorobenzyl)-5-(methoxymethyl)-7,12,13,14-tetramethyl-2-(3-morpholinopropyl)-1,4,7,11,14-pentaazacyclooctadecane-3,6,10,15,18-pentaone] | 105.87% | 1.6 nM |
| COC[C@@H]1NC(=O)[C@H](C)N(Cc2ccc(Cl)cc2Oc2ccc(-c3cnc(CN(C)C)n3C)cc2)C(=O)C[C@@H](Cc2ccccn2)C(=O)N(C)[C@H]2CCCC[C@@H]2NC(=O)C[C@H](Cc2ccc(Cl)cc2)N(C)C1=O [Compound 284, (4S,7S,10S,14R,16aS,20aS)-11-(4-chloro-2-(4-(2-((dimethylamino)methyl)-1-methyl-1H-imidazol-5-yl)phenoxy)benzyl)-4-(4-chlorobenzyl)-7-(methoxymethyl)-5,10,16-trimethyl-14-(pyridin-2-ylmethyl)hexadecahydrobenzo[l][1,4,7,11,14]pentaazacyclooctadecine-2,6,9,12,15(3H)-pentaone] | 98.50% | 0.9 nM |
| COC[C@@H]1NC(=O)[C@H](CCCN(C)C)N(Cc2ccc(Cl)cc2Oc2ccc(-c3cnc(CN4CCCC4)n3C)cc2)C(=O)C[C@@H](Cc2ccccc2)C(=O)N(C)[C@H]2CCCC[C@@H]2NC(=O)C[C@H](Cc2ccc(Cl)cc2)N(C)C1=O [Compound 285, (4S,7S,10S,14R,16aS,20aS)-14-benzyl-11-(4-chloro-2-(4-(1-methyl-2-(pyrrolidin-1-ylmethyl)-1H-imidazol-5-yl)phenoxy)benzyl)-4-(4-chlorobenzyl)-10-(3-(dimethylamino)propyl)-7-(methoxymethyl)-5,16-dimethylhexadecahydrobenzo[l][1,4,7,11,14]pentaazacyclooctadecine-2,6,9,12,15(3H)-pentaone] | 90.24% | 2.1 nM |
| CC=CC[C@@H]1CC(=O)N(Cc2ccc(Cl)cc2Oc2ccc(-c3cnc(CN(C)C)n3C)cc2)[C@@H](C)C(=O)N[C@@H](COC)C(=O)N(C)[C@@H](Cc2ccc(Cl)cc2)CC(=O)N[C@H]2CCCC[C@@H]2N(C)C1=O [Compound 286, (4S,7S,10S,14R,16aS,20aS)-14-(but-2-en-1-yl)-11-(4-chloro-2-(4-(2-((dimethylamino)methyl)-1-methyl-1H-imidazol-5-yl)phenoxy)benzyl)-4-(4-chlorobenzyl)-7-(methoxymethyl)-5,10,16-trimethylhexadecahydrobenzo[l][1,4,7,11,14]pentaazacyclooctadecine-2,6,9,12,15(3H)-pentaone] | 59.34% | 0.7 nM |
| CN(C)Cc1ncc(-c2ccc(Oc3cc(Cl)ccc3CN3C(=O)C[C@@H](Cc4ccccc4)C(=O)N(C)[C@H]4CCCC[C@@H]4NC(=O)C[C@H](Cc4ccc(Cl)cc4)N(C)C(=O)[C@H](CO)NC(=O)[C@H]3CCC(=O)OC(C)(C)C)cc2)n1C [Compound 287, tert-butyl 3-((4S,7S,10R,14R,16aS,20aS)-14-benzyl-11-(4-chloro-2-(4-(2-((dimethylamino)methyl)-1-methyl-1H-imidazol-5-yl)phenoxy)benzyl)-4-(4-chlorobenzyl)-7-(hydroxymethyl)-5,16-dimethyl-2,6,9,12,15-pentaoxodocosahydrobenzo[l][1,4,7,11,14]pentaazacyclooctadecin-10-yl)propanoate] | 89.28% | 2.6 nM |
| COC[C@@H]1NC(=O)[C@@H](CCN(C)C)N(Cc2ccc(Cl)cc2Oc2ccc(-c3cnc(CN(C)C)n3C)cc2)C(=O)C[C@@H](Cc2ccccc2)C(=O)N(C)[C@H]2CCCC[C@@H]2NC(=O)C[C@H](Cc2ccc(Cl)cc2)N(C)C1=O [Compound 288, (4S,7S,10R,14R,16aS,20aS)-14-benzyl-11-(4-chloro-2-(4-(2-((dimethylamino)methyl)-1-methyl-1H-imidazol-5-yl)phenoxy)benzyl)-4-(4-chlorobenzyl)-10-(2-(dimethylamino)ethyl)-7-(methoxymethyl)-5,16-dimethylhexadecahydrobenzo[l][1,4,7,11,14]pentaazacyclooctadecine-2,6,9,12,15(3H)-pentaone] | 87.05% | 24.1 nM |
| C=CC[C@@H]1CC(=O)N(Cc2ccc(Cl)cc2Oc2ccc(-c3cnc(CN(C)C)n3C)cc2)[C@@H](C)C(=O)N[C@@H](COC)C(=O)N(C)[C@@H](Cc2ccc(Cl)cc2)CC(=O)N[C@@H](C)[C@H](C)N(C)C1=O [Compound 289, (2S,5S,8S,12S,13S,16R)-16-allyl-1-(4-chloro-2-(4-(2-((dimethylamino)methyl)-1-methyl-1H-imidazol-5-yl)phenoxy)benzyl)-8-(4-chlorobenzyl)-5-(methoxymethyl)-2,7,12,13,14-pentamethyl-1,4,7,11,14-pentaazacyclooctadecane-3,6,10,15,18-pentaone] | 100.92% | 0.6 nM |
| COC[C@@H]1NC(=O)[C@H](C)N(Cc2ccc(Cl)cc2Oc2ccc(-c3cnc(CN(C)C)n3C)cc2)C(=O)C[C@@H](CC2CC2)C(=O)N(C)[C@H]2CCCC[C@@H]2NC(=O)C[C@H](Cc2ccc(Cl)cc2)N(C)C1=O [Compound 290, (4S,7S,10S,14R,16aS,20aS)-11-(4-chloro-2-(4-(2-((dimethylamino)methyl)-1-methyl-1H-imidazol-5-yl)phenoxy)benzyl)-4-(4-chlorobenzyl)-14-(cyclopropylmethyl)-7-(methoxymethyl)-5,10,16-trimethylhexadecahydrobenzo[l][1,4,7,11,14]pentaazacyclooctadecine-2,6,9,12,15(3H)-pentaone] | 79.21% | 3.6 nM |
| COC[C@@H]1NC(=O)[C@H](CCCN(C)C)N(Cc2ccc(Cl)cc2Oc2ccc(-c3cnc(CN(C)C)n3C)cc2)C(=O)C[C@@H](Cc2ccccc2)C(=O)N(C)[C@H]2CCCC[C@@H]2NC(=O)C[C@H](Cc2ccc(Cl)cc2)N(C)C1=O [Compound 291, (4S,7S,10S,14R,16aS,20aS)-14-benzyl-11-(4-chloro-2-(4-(2-((dimethylamino)methyl)-1-methyl-1H-imidazol-5-yl)phenoxy)benzyl)-4-(4-chlorobenzyl)-10-(3-(dimethylamino)propyl)-7-(methoxymethyl)-5,16-dimethylhexadecahydrobenzo[l][1,4,7,11,14]pentaazacyclooctadecine-2,6,9,12,15(3H)-pentaone] | 102.86% | 1.6 nM |
| COC[C@@H]1NC(=O)[C@H](C)N(Cc2ccc(Cl)cc2Oc2ccc(-n3cnc(CN(C)C)c3C)cc2)C(=O)C[C@@H](Cc2ccccc2)C(=O)N(C)[C@H]2CCCC[C@@H]2NC(=O)C[C@H](Cc2ccc(Cl)cc2)N(C)C1=O [Compound 292, (4S,7S,10S,14R,16aS,20aS)-14-benzyl-11-(4-chloro-2-(4-(4-((dimethylamino)methyl)-5-methyl-1H-imidazol-1-yl)phenoxy)benzyl)-4-(4-chlorobenzyl)-7-(methoxymethyl)-5,10,16-trimethylhexadecahydrobenzo[l][1,4,7,11,14]pentaazacyclooctadecine-2,6,9,12,15(3H)-pentaone] | 113.30% | 3 nM |
